These results are taken from US9126984B2, “4-(indol-3-yl)-pyrazole derivatives, pharmaceutical compositions and methods for use” (ITEOS THERAPEUTICS, priority 2013, dated 2015).

The structures appear in SMILES notation. Where only a bound is given, the exact number is not on record here.

As usually defined, the IC50 is the concentration at which inhibition is half-maximal. In general, melting point refers to the temperature of the solid-liquid transition.

Data set [1] addresses T1, human recombinant TDO2 enzyme (Homo sapiens, UniProt P48775).
T1 construct: made in house
In words: Assay for TDO2 enzymatic activity determination. In kind it is biochemical. To be noted: human recombinant TDO2, L-Trp 1 mM, room temperature one hour, kynurenine absorbance at 480 nm. As for the experimental part: To measure the TDO2 activity, the reaction mixture contained (final concentrations) potassium phosphate buffer (50 mM, pH 7.5), ascorbic acid (0.25 M), methylene blue (0.125 μM), catalase (40 units/mL, from bovine liver, Sigma), and human recombinant TDO2 enzyme (prepared as described in Dolusic et al. J. Med. Chem.; 2011, 54, 5320-5334; 0.9 μg) without or with the compounds of the present invention embodiments at the indicated concentrations (total volume 112.5 μL). The reaction was initiated by the addition of 37.5 μL of L-Trp (final concentration 1 mM) at room temperature. The reaction was conducted at room temperature during one hour and stopped by the addition of 30 μL of 30% (w/v) trichloroacetic acid.
To convert N-formylkynurenine into kynurenine, the reaction mixture was incubated at 65° C. for 30 min. Then 150 μL of the reaction mixture was mixed with 120 μL, of 2.5% (w/v) 4-(dimethylamino)-benzaldehyde in acetic acid and incubated for 5 min at room temperature. Kynurenine concentrations were determined by measuring the absorbance at 480 nm. A standard curve was made with pure kynurenine. The TDO activity was measured as described above using ten serial concentrations of certain embodiments of the compounds of the present invention. Data were fitted using the Prism software (GraphPad Software, Inc.).

Data set [2] addresses T2, murine mastocytoma P815 cells overexpressing hTDO2 (Homo sapiens, UniProt P48775).
T2 construct: expressed in transfected cells; host or cells: murine mastocytoma P815 cells
In words: Cellular assay for TDO2 activity determination. Format: cell-based. To be noted: P815 cells overexpressing hTDO2, overnight incubation at 37° C., kynurenine absorbance at 480 nm. The procedure: The assay was performed in 96-well flat bottom plates seeded with murine mastocytoma P815 cells overexpressing hTDO2 (prepared as described in Pilotte et al., PNAS, 2012, 109(7), 2497-2502), at a concentration of 5×10^4 cells/well in a final volume of 200 μL. To determine TDO or IDO activity, the cells were incubated overnight at 37° C. at 5% CO2 in IMDM (Invitrogen) supplemented with 2% FBS and 2% penicillin/streptomycin in the presence of the compounds of the present invention, at different concentrations.
The plates were then centrifuged 5 min at 1000 rpm, and 100 μL of the supernatant were collected in a conical plate, 30 uL of TCA 30% were added and a further centrifugated at 3000×g for 10 minutes. 100 μL of the supernatant were collected in a flat bottomed plate and 100 μL of 2% (w/v) 4-(dimethylamino)-benzaldehyde in acetic acid and incubated for 5 min at room temperature. Kynurenine concentrations were determined by measuring the absorbance at 480 nm. A standard curve was made with pure kynurenine. The TDO activity was measured as described above using ten serial concentrations of the compounds of the present invention. Data were fitted using the Prism software (GraphPad Software, Inc.).

T1 sequence (P48775 whole entry): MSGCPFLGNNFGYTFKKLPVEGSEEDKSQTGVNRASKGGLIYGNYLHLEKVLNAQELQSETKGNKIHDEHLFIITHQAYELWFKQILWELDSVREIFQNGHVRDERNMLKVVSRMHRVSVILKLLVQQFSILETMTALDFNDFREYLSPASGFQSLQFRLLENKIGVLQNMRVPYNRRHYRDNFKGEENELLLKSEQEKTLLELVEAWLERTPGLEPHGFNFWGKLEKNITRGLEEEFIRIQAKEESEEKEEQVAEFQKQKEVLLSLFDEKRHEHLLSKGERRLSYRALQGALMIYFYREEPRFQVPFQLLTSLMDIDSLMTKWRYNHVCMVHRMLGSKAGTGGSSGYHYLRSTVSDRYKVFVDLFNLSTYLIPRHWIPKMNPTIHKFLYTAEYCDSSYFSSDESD
T2 sequence (P48775 whole entry): as above

Compound `CN(C)C(=O)N1CCC(n2cc(-c3c[nH]c4cc(F)ccc34)cn2)CC1` [Example 90, 4-(4-(6-fluoro-1H-indol-3-yl)-1H-pyrazol-1-yl)-N,N-dimethylpiperidine-1-carboxamide] showed a melting point of 223 to 224.6 °C. Besides, in data set [1], the IC50 lay in the range of 1 to 10 µM.

Turning to `COCC(=O)N1CCC(n2cc(-c3c[nH]c4cc(F)ccc34)cn2)CC1` [Example 85, 1-(4-(4-(6-fluoro-1H-indol-3-yl)-1H-pyrazol-1-yl)piperidin-1-yl)-2-methoxyethanone], the IC50 in data set [1] and in data set [2] was 1 to 10 µM each time.

In the case of `Fc1ccc2c(-c3cnn(CCN4CCNCC4)c3)c[nH]c2c1` [Example 27, 6-fluoro-3-(1-(2-(piperazin-1-yl)ethyl)-1H-pyrazol-4-yl)-1H-indole], the values for the IC50 in data set [1] and in data set [2] were 1 to 10 µM and < 1 µM, respectively.

In the case of `Cn1cc(-c2c[nH]c3cc(F)ccc23)cn1` [Example 73, 6-fluoro-3-(1-methyl-1H-pyrazol-4-yl)-1H-indole], the IC50 in data set [1] and in data set [2] was < 1 µM each time.

As for `Fc1ccc2c(-c3cnn(CC4CCN(C5CC5)CC4)c3)c[nH]c2c1` [Example 52, 3-(1-((1-cyclopropylpiperidin-4-yl)methyl)-1H-pyrazol-4-yl)-6-fluoro-1H-indole], the IC50 in data set [1] and in data set [2] was < 1 µM each time.

Turning to `CS(=O)(=O)NCCn1cc(-c2c[nH]c3cc(F)ccc23)cn1` [Example 25, N-(2-(4-(6-fluoro-1H-indol-3-yl)-1H-pyrazol-1-yl)ethyl)methanesulfonamide], the results for the IC50 in data set [1] and in data set [2] were 1 to 10 µM and < 1 µM, respectively.

Consider `CS(=O)(=O)N1CCC(Cn2cc(-c3c[nH]c4cc(F)ccc34)cn2)CC1` [Example 54, 6-fluoro-3-(1-((1-(methylsulfonyl)piperidin-4-yl)methyl)-1H-pyrazol-4-yl)-1H-indole], for which the IC50 in data set [1] and in data set [2] was 1 to 10 µM throughout.

As to `CN1CCC(Cn2cc(-c3c[nH]c4cc(F)ccc34)cn2)CC1` [Example 53, 6-fluoro-3-(1-((1-methylpiperidin-4-yl)methyl)-1H-pyrazol-4-yl)-1H-indole], the IC50 in data set [1] and in data set [2] was < 1 µM in each case.

As for `CC(=O)N1CCC(Cn2cc(-c3c[nH]c4cc(F)ccc34)cn2)CC1` [Example 51, 1-(4-((4-(6-fluoro-1H-indol-3-yl)-1H-pyrazol-1-yl)methyl)piperidin-1-yl)ethanone], the values for the half-inhibitory concentration (IC50) in data set [1] and in data set [2] were 1 to 10 µM and < 1 µM, respectively.

The compound `CC(=O)NCCn1cc(-c2c[nH]c3cc(F)ccc23)cn1` [Example 21, N-(2-(4-(6-fluoro-1H-indol-3-yl)-1H-pyrazol-1-yl)ethyl)acetamide] gave a melting point of 179.5 to 180.8 °C. The IC50 in data set [1] was 1 to 10 µM.

Turning to `Fc1ccc2c(-c3cnn(-c4ccnnc4)c3)c[nH]c2c1` [Example 110, 6-fluoro-3-(1-(pyridazin-4-yl)-1H-pyrazol-4-yl)-1H-indole], the IC50 in data set [1] and in data set [2] was 1 to 10 µM in each case.

Regarding `OC(CN1CCC(Cn2cc(-c3c[nH]c4cc(F)ccc34)cn2)CC1)C(F)(F)F` (stereo not drawn) [Example 48, 1,1,1-trifluoro-3-(4-((4-(6-fluoro-1H-indol-3-yl)-1H-pyrazol-1-yl)methyl)piperidin-1-yl)propan-2-ol], the IC50 in data set [1] and in data set [2] was < 1 µM throughout.

Take `Fc1ccc2c(-c3cnn(CCN4CCCC4)c3)c[nH]c2c1` [Example 29, 6-fluoro-3-(1-(2-(pyrrolidin-1-yl)ethyl)-1H-pyrazol-4-yl)-1H-indole]: the IC50 is 1 to 10 µM in data set [1] and < 1 µM in data set [2].

`O=C(O)CCC(=O)N1CCC(n2cc(-c3c[nH]c4cc(F)ccc34)cn2)CC1` [Example 80, 4-(4-(4-(6-fluoro-1H-indol-3-yl)-1H-pyrazol-1-yl)piperidin-1-yl)-4-oxobutanoic acid] returned a melting point of 226 to 228 °C. The IC50 in data set [1] fell in the range of 10 to 100 µM.

For `Fc1ccc2c(-c3cnn(CCN4CCOCC4)c3)c[nH]c2c1` [Example 20, 4-(2-(4-(6-fluoro-1H-indol-3-yl)-1H-pyrazol-1-yl)ethyl)morpholine], the IC50 in data set [1] and in data set [2] was 1 to 10 µM each time.

Regarding `Nc1ccc(-n2cc(-c3c[nH]c4cc(F)ccc34)cn2)nn1` [Example 109, 6-(4-(6-fluoro-1H-indol-3-yl)-1H-pyrazol-1-yl)pyridazin-3-amine], the figures for the IC50 in data set [1] and in data set [2] were 1 to 10 µM and < 1 µM, respectively.

For `CC(Cn1cc(-c2c[nH]c3cc(F)ccc23)cn1)C(N)=O` (single isomer, unassigned) [Example 36, 3-(4-(6-fluoro-1H-indol-3-yl)-1H-pyrazol-1-yl)-2-methylpropanamide], the values for the IC50 in data set [1] and in data set [2] were 1 to 10 µM and < 1 µM, respectively.

For `Fc1cc2[nH]cc(-c3cn[nH]c3)c2cc1F` [Example 71, 5,6-difluoro-3-(1H-pyrazol-4-yl)-1H-indole], the IC50 in data set [1] and in data set [2] was < 1 µM each time.

Consider `Fc1ccc2c(-c3cnn(-c4ccccn4)c3)c[nH]c2c1` [Example 111, 6-fluoro-3-(1-(pyridin-2-yl)-1H-pyrazol-4-yl)-1H-indole], for which the IC50 in data set [1] and in data set [2] was < 1 µM throughout.

For `CN(C)C(=O)Cn1cc(-c2c[nH]c3cc(F)ccc23)cn1` [Example 40, 2-(4-(6-fluoro-1H-indol-3-yl)-1H-pyrazol-1-yl)-N,N-dimethylacetamide], the IC50 in data set [1] and in data set [2] was 1 to 10 µM in each case.

Turning to `Cc1c(-c2c[nH]c3cc(F)ccc23)cnn1C` (single isomer, unassigned) [Example 74, 3-(1,5-dimethyl-1H-pyrazol-4-yl)-6-fluoro-1H-indole], the concentration for half-maximal inhibition (IC50) in data set [1] was 1 to 10 µM; in data set [2], < 1 µM.

In the case of `Fc1ccc2c(-c3cnn(-c4cccnn4)c3)c[nH]c2c1` [Example 107, 6-fluoro-3-(1-(pyridazin-3-yl)-1H-pyrazol-4-yl)-1H-indole], the IC50 in data set [1] is 1 to 10 µM; in data set [2], < 1 µM.

`O[C@H]1CC[C@H](n2cc(-c3c[nH]c4cc(F)ccc34)cn2)CC1` [Example 69, (1R,4R)-4-(4-(6-fluoro-1H-indol-3-yl)-1H-pyrazol-1-yl)cyclohexanol]: the IC50 in data set [1] and in data set [2] was 1 to 10 µM throughout.

In the case of `Fc1ccc2c(-c3cnn(-c4cccnc4)c3)c[nH]c2c1` [Example 112, 6-fluoro-3-(1-(pyridin-3-yl)-1H-pyrazol-4-yl)-1H-indole], the IC50 in data set [1] and in data set [2] was < 1 µM in each case.

In the case of `OCCN1CCC(Cn2cc(-c3c[nH]c4cc(F)ccc34)cn2)CC1` [Example 47, 2-(4-((4-(6-fluoro-1H-indol-3-yl)-1H-pyrazol-1-yl)methyl)piperidin-1-yl)ethanol], the IC50 is < 1 µM in data set [1] and 1 to 10 µM in data set [2].

As to `CN1CCN(CCn2cc(-c3c[nH]c4cc(F)ccc34)cn2)CC1` [Example 19, 6-fluoro-3-(1-(2-(4-methylpiperazin-1-yl)ethyl)-1H-pyrazol-4-yl)-1H-indole], the IC50 was 1 to 10 µM in data set [1] and < 1 µM in data set [2].

As for `CNC(=O)Cn1cc(-c2c[nH]c3cc(F)ccc23)cn1` [Example 39, 2-(4-(6-fluoro-1H-indol-3-yl)-1H-pyrazol-1-yl)-N-methylacetamide], the IC50 in data set [1] and in data set [2] was 1 to 10 µM in each case.

Regarding `NC(=O)[C@H]1C[C@@H](n2cc(-c3c[nH]c4cc(F)ccc34)cn2)C1` [Example 61, (1S,3R)-3-(4-(6-fluoro-1H-indol-3-yl)-1H-pyrazol-1-yl)cyclobutanecarboxamide], the IC50 in data set [1] was 1 to 10 µM; in data set [2], < 1 µM.

Regarding `NC(=O)[C@H]1C[C@H](n2cc(-c3c[nH]c4cc(F)ccc34)cn2)C1` [Example 62, (1R,3R)-3-(4-(6-fluoro-1H-indol-3-yl)-1H-pyrazol-1-yl)cyclobutanecarboxamide], the IC50 in data set [1] and in data set [2] was 1 to 10 µM in each case.

For the compound `FCCN1CCC(Cn2cc(-c3c[nH]c4cc(F)ccc34)cn2)CC1` [Example 46, 6-fluoro-3-(1-((1-(2-fluoroethyl)piperidin-4-yl)methyl)-1H-pyrazol-4-yl)-1H-indole], the IC50 in data set [1] and in data set [2] was < 1 µM throughout.
